Experimental data: patent US20230346727A1, “COMPOUNDS FOR THE TREATMENT OF HEMOPHILIA” (UNIVERSITE GRENOBLE ALPES, priority 2020, published 2023)

Columns and labels:
[1] = system: plasma from the hemophiliac patient (hemophiliac patient A); assay: Second ex vivo thrombin generation test (CAT analyzer, PPP Reagent LOW); assay type: biochemical, human; details: for Amount of thrombin at the maximum of the peak, normalized to the thrombin peak obtained with adapalene: 50 μM final in plasma (positive control: factor VIII 1 IU/mL), HEPES buffer, negative control 0.13 ± 0.02; for peak of generated thrombin compared to negative and positive control, in words: 50 μM final in plasma
Protocol: A second thrombin generation test is carried out, for the compounds H27, H31, H32, H35, H38, H39 and the compound H24.
The thrombin generation test was carried out at 37° C. using a CAT analyzer (Diagnostica Stago) with the PPP Reagent LOW reagent (Diagnostica Stago) in accordance with the manufacturer's instructions and according to the method established by Pr. Hemker in 2003. PPP Reagent LOW is a mixture of tissue factor (TF) 1 pM with phospholipid vesicles (PL, 4 μM). The test is triggered by the addition of a mixture of calcium+fluorescent substrate (ZGGR-AMC) (FluCa mixture).
From a technical point of view, 80 μL of surcharged plasma sample is added to 20 μL of «initiator complex» (PPP Reagent LOW) and incubated for 10 min at 37° C. Then, the reaction is triggered by adding 20 μL of FluCa (mixture of CaCl2 and ZGGR-AMC substrate) and the fluorescence signal is measured over time. Each test is performed in triplicate.
For each tested molecule, 247 μL of plasma from the hemophiliac patient were surcharged with 13 μL of a solution containing different amounts of compound (molecule to be tested, factor VIII or dilution buffer) to obtain the desired final concentration (systematic dilution of the molecule to be tested in the plasma at 1/20). For example, to obtain the final concentration of 50 μM in plasma, 13 μL of a 1 mM solution was added to 247 μL of plasma. In parallel with the tests on the different chemical compounds, the plasma of a hemophiliac patient is surcharged with the same buffer for diluting the compound, an 8% solution of dimethyl sulfoxide (DMSO), as a negative control (0.4% of final DMSO) in order to obtain the basal level of thrombin generation of the used plasma. The positive control is the same plasma surcharged with plasma factor VIII (Factane, LFB, France) at a concentration of 1 IU/mL (or 100% factor VIII) in order to obtain the expected «normal» level of thrombin generation used plasma.
For this example, solutions of adapalene and 1 mM compounds were prepared with the buffer (18 mM HEPES, 135 mM NaCl, pH 7.35) instead of water as in Example 1. This modification has made it possible to increase the amount of thrombin generated by the plasma of the hemophiliac patient A in the presence of 50 μM of adapalene.
Compounds were tested at a final concentration of 50 μM in plasma, and signal was measured over time. The obtained results, expressed as the amount of thrombin measured at the maximum of the peak obtained and normalized to the thrombin peak obtained with adapalene, are shown in Table 1 below: […]

[2] = system: plasma from a patient suffering from severe hemophilia A; assay: Ex vivo thrombin generation test (STA-Genesia, STG-Bleedscreen reagent); assay type: biochemical, human
Protocol: The thrombin generation test consists of measuring the kinetics of appearance of this key coagulation factor in the plasma over time. After activation of coagulation by calcium, the amount of thrombin changes over time. It is measured using a synthetic thrombin substrate coupled to a fluorescent molecule (ZGGR-AMC). The main parameters determined are the latency time before observing an increase in thrombin generation, the thrombin peak corresponding to the maximum amount of thrombin generated and the ETP (endogenous thrombin potential) corresponding to the total amount of thrombin generated in plasma during the test. In the case of a patient with hemophilia A, the generation of thrombin is low or even almost zero for some patients. Adding the missing coagulation factor (factor VIII) to its physiological level (1 Ul/mL or 100%) restores coagulation in patients and recovers a «normal» thrombin generation. Thus, the thrombin generation test makes it possible to globally evaluate the coagulation rate of a given plasma and in the present case, it makes it possible to evaluate the capacity of a molecule to restore or not restore coagulation in a hemophiliac patient.
For this example, several ex vivo thrombin generation tests were carried out on plasma from a patient suffering from severe hemophilia A, therefore devoid of factor FVIII, in order to evaluate the effect on coagulation of a compound of general formula (I), more particularly adapalene, of formula (V) above, on the kinetics and the generated amount of thrombin.
Hemophiliac patient plasma was obtained from Cryopep company (Montpellier, France).
Adapalene is commercially available, in particular from Prestwick company. It was dissolved in an 8% dimethylsulfoxide (DMSO) solution then diluted to a concentration of 1 mM and then tested at the following concentrations: 50 μM, 5 μM, 0.5 μM (final concentrations in plasma).
The thrombin generation test was performed at 37° C. using a fully automated STA-Genesia analyzer (Diagnostica Stago) with STG®-Bleedscreen reagent (Diagnostica Stago) according to the manufacturer's instructions and according to the method established by Pr. Hemker in 2003. The STG®-Bleedscreen reagent is a mixture of tissue factor (TF) at low concentration with phospholipid vesicles (PL). The test is triggered by the addition of a mixture of calcium+fluorescent substrate (ZGGR-AMC) (STG®-FluoStart mixture).
From a technical point of view, 4 volumes of surcharged plasma sample are added to 1 volume of «initiator complex» (STG®-Bleedscreen) and incubated for 10 min at 37° C. Then, the reaction is triggered by adding 1 volume of STG®-FluoStart (mixture of CaCl2 and ZGGR-AMC substrate) and the fluorescence signal is measured over time. Each test is performed in duplicate
For each tested molecule, 475 μL of plasma from the hemophiliac patient were surcharged with 25 μL of a solution containing different amounts of compound (molecule to be tested, factor VIII or dilution buffer) to obtain the desired final concentration (systematic dilution of the molecule to be tested in the plasma at 1/20). For example, to obtain the final concentration of 50 μM in plasma, 25 μL of a 1 mM solution was added to 475 μL of plasma. The preparation of 500 μL of surcharged plasma allows to perform the 2 thrombin generation tests (duplicate), the 2 calibration tests (duplicate) and takes into account the dead volume of the automaton.
In parallel with the tests on the different chemical compounds, the plasma of a hemophiliac patient is surcharged with the same buffer for diluting the compound, an 8% solution of dimethylsulfoxide (DMSO), as a negative control (0.4% of final DMSO) in order to obtain the basal level of thrombin generation of the used plasma. The positive control is the same plasma surcharged with plasma factor VIII (Factane, LFB, France) at a concentration of 1 IU/mL (or 100% factor VIII) in order to obtain the expected «normal» level of used thrombin generation plasma. […]

[3] = target: T1, FXa inhibition by TFPI-K1K2 (truncated human TFPI) (Homo sapiens, UniProt P10646, F53G); assay: FXa activity assay: release of FXa inhibition by TFPI-K1K2 (colorimetric, PNAPEP-1025); assay type: biochemical; details: 50 μM, TFPI-K1K2 30 nM, FXa 0.5 nM
T1 sequence (P10646 29-182 F53G): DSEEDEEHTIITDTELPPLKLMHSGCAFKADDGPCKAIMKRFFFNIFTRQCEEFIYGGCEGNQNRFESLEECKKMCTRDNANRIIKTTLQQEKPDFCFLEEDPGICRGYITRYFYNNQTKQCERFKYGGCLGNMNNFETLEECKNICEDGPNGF
Protocol: The ability of adapalene to reverse FXa inhibition by TFPI was assessed by using a low TFPI concentration FXa activity assay. For this test, a truncated human TFPI (TFPI-K1K2) was used, which is common to both TFPI isoforms α and β, having the amino acid sequence SEQ ID No 1:
Adapalene was tested for its ability to release FXa inhibition by TFPI-K1K2 using a colorimetric assay in a 96-well plate format. All steps were performed at room temperature. FXa inhibition by increasing TFPI-K1K2 concentrations was first analyzed to determine the best detection conditions. […]
Briefly, 14.5 μL of 350 μM adapalene, prediluted in the buffer described above, was added to 62.5 μL 50 nM TFPI-K1K2 and mixed together by aspiration/dispensing. After 10 min of incubation at room temperature, 6.25 μL of 8 nM FXa was added, the mixture was mixed again, and the activity of uninhibited FXa was quantified by the addition of 18 μL of PNAPEP-1025 (Cryopep), an FXa substrate, diluted to 2 mM in H2O. […]
The plates were centrifuged to remove any bubbles and the optical density (OD) at 405 nm, corresponding to the hydrolysis of the PNAPEP-1025 substrate, was measured for 1 h at room temperature. The absorbance value at t0, corresponding to an absorbance of 0.05, was subtracted and the […] restoration value was reported as a percentage of the positive control.

[4] = adapalene 0.5 μM final in severe hemophilia A plasma
[5] = adapalene 5 μM final in severe hemophilia A plasma
[6] = adapalene 50 μM final in severe hemophilia A plasma

Row | Structure (SMILES) | Amount of thrombin at the maximum of the peak, normalized to the thrombin peak obtained with adapalene [1] | peak of generated thrombin compared to negative and positive control, in words [1] | further results
1 | COc1ccc(-c2ccc3cc(C(=O)O)cnc3c2)cc1C12CC3CC(CC(C3)C1)C2 [Compound H32, 7-(3-(adamantan-1-yl)-4-methoxyphenyl)quinoline-3-carboxylic acid] | 0.55 |  | 
2 | C#CCOc1ccc(-c2ccc3cc(C(=O)O)ccc3c2)cc1C12CC3CC(CC(C3)C1)C2 [Compound H35, 6-(3-(adamantan-1-yl)-4-(prop-2-yn-1-yloxy)phenyl)-2-naphthoic acid] | 0.53 |  | 
3 | COc1ccc(-c2ccc(C(=O)NCC(=O)O)cc2)cc1C12CC3CC(CC(C3)C1)C2 [Compound H24, 2-(3′-(adamantan-1-yl)-4′-methoxy-[1,1′-biphenyl]-4-ylcarboxamido)acetic acid] | 0.23 |  | 
4 | COc1ccc(N2CCc3cc(C(=O)O)ccc3C2)cc1C12CC3CC(CC(C3)C1)C2 [Compound H27, 2-(3-(adamantan-1-yl)-4-methoxyphenyl)-1,2,3,4-tetrahydroisoquinoline-6 carboxylic acid] | 0.51 |  | 
5 | COc1ccc(-c2ccc3nc(C(=O)O)ccc3c2)cc1C12CC3CC(CC(C3)C1)C2 [Compound H31, 6-(3-(adamantan-1-yl)-4-m2thoxyph2nyl)quinoline-2-carboxylic acid] | 0.62 |  | 
6 | COc1ccc(-c2ccc3cc(C(=O)O)cc(O)c3c2)cc1C12CC3CC(CC(C3)C1)C2 [Compound H38, 6-(3-(adamantan-1-yl)-4-methoxyphenyl)-4-hydroxy-2-naphthoic acid] | 0.96 | much higher | 
7 | COc1ccc(-c2ccc3cc(CS(=O)(=O)O)ccc3c2)cc1C12CC3CC(CC(C3)C1)C2 [Compound H39, (6-(3-(adamantan-1-yl)-4-methoxyphenyl)naphthalen-2-yl)methanesulfonic acid] | 1.22 | much higher | 
8 | COc1ccc(-c2ccc3cc(C(=O)O)ccc3c2)cc1C12C[C@H]3C[C@@H](C1)C[C@@H](C2)C3 [adapalene, 6-[3-(1-adamantyl)-4-methoxyphenyl]naphthalene-2-carboxylic acid] | 1 | much higher | generation of thrombin (peak and ETP) compared to negative and positive control, in words ([2]; 50 μM in severe hemophilia A plasma, FIG. 3 and FIG. 4): increase in the generation of thrombin compared to the negative control; ETP (endogenous thrombin potential) [2, 4]: 455 nM·min; thrombin peak [2, 4]: 29.7 nM; ETP (endogenous thrombin potential) [2, 5]: 504 nM·min; thrombin peak [2, 5]: 39 nM; ETP (endogenous thrombin potential) [2, 6]: 588 nM·min; thrombin peak [2, 6]: 55 nM; coagulation restoration percentage (percentage of the positive control) [3]: approximately 14%; optical density (OD) at 405 nm, hydrolysis of PNAPEP-1025 by uninhibited FXa ([3]; negative control OD 0.048, positive control OD 0.406): 0.105
